# From patent US20240166652A1, “MODULATORS OF THE INTEGRATED STRESS PATHWAY” (Calico Life Sciences LLC, priority 2017, published 2024)
# System: ATF4 luciferase reporter in HEK293T cells
# Assay: ATF4-Luc assay (ATF4 luciferase reporter, tunicamycin-treated HEK293T cells)
# Format: cell-based, human
# Details: Homo sapiens, HEK-293T; HEK293T cells carrying the ATF4 luciferase reporter, 1 μg/mL tunicamycin, 7 hours
row,Compound,EC50
1,"O=C(COc1ccc(S(F)(F)(F)(F)F)nc1)NC12CCC(NC(=O)COc3ccc(Cl)c(F)c3)(CC1)[C@@H](O)C2 [Compound 838, 2-(4-chloro-3-fluorophenoxy)-N-[(2S)-2-hydroxy-4-(2-{[6-(pentafluoro-lambda^6-sulfanyl)pyridin-3-yl]oxy}acetamido)bicyclo[2.2.2]octan-1-yl]acetamide]",< 10 nM
2,"O=C(COc1ccc(F)c(F)c1)NC12CCC(NC(=O)COc3ccc(F)c(OC(F)(F)F)c3)(CC1)[C@@H](O)C2 [Compound 812, 2-(3,4-difluorophenoxy)-N-[(3S)-4-{2-[4-fluoro-3-(trifluoromethoxy)phenoxy]acetamido}-3-hydroxybicyclo[2.2.2]octan-1-yl]acetamide]",< 10 nM
3,"O=C(COc1ccc(Cl)c(Cl)c1)NC12CCC(NC(=O)OCc3ccccc3)(C1)C2 [Compound 193, benzyl {4-[2-(3,4-dichlorophenoxy)acetamido]bicyclo[2.1.1]hexan-1-yl}carbamate]",> 2000 nM
4,"CC(=O)c1ccc(OCC(=O)NC23CCC(NC(=O)COc4ccc(Cl)c(F)c4)(CC2)C[C@@H]3O)cc1 [Compound 511, 2-(4-acetylphenoxy)-N-{(2S)-4-[2-(4-chloro-3-fluorophenoxy)acetamido]-2-hydroxybicyclo[2.2.2]octan-1-yl}acetamide]",10 to 50 nM
5,"O=C(COc1ccc(Cl)c(F)c1)NC12CC(NC(=O)COc3ccc(Cl)c(Cl)c3)(C1)C2 [Compound 121, 2-(4-chloro-3-fluorophenoxy)-N-{3-[2-(3,4-dichlorophenoxy)acetamido]-bicyclo[1.1.1]pentan-1-yl}acetamide]",< 10 nM
6,"O=C(COc1ccc(Cl)c(F)c1)NC12CC(NC(=O)COc3ccccc3F)(C1)C2 [Compound 411, 2-(4-chloro-3-fluorophenoxy)-N-{3-[2-(2-fluorophenoxy)acetamido]bicyclo[1.1.1]pentan-1-yl}acetamide]",10 to 50 nM
7,"CO[C@H]1C[C@]2(NC(=O)COc3ccc(Cl)c(F)c3)CC[C@@]1(NC(=O)COc1ccc(Cl)c(F)c1)CC2=O (racemic) [Compound 555, rac-N,N′-[(1R,2S,4R)-2-methoxy-5-oxobicyclo[2.2.2]octane-1,4-diyl]bis[2-(4-chloro-3-fluorophenoxy)acetamide]]",10 to 50 nM
8,"Nc1nc(Cl)ccc1OCC(=O)NC12CC(NC(=O)COc3ccc(Cl)c(F)c3)(C1)C2 [Compound 236, 2-[(2-amino-6-chloropyridin-3-yl)oxy]-N-{3-[2-(4-chloro-3-fluorophenoxy)acetamido]bicyclo[1.1.1]pentan-1-yl}acetamide]",10 to 50 nM
9,"Cc1cc(OCC(=O)NC23CCC(NC(=O)COc4ccc(F)cc4)(CC2)[C@@H](O)C3)ccc1F [Compound 817, 2-(4-fluoro-3-methylphenoxy)-N-{(3S)-4-[2-(4-fluorophenoxy)acetamido]-3-hydroxybicyclo[2.2.2]octan-1-yl}acetamide]",< 10 nM
10,"CCCS(=O)(=O)c1ccc(OCC(=O)NC23CCC(NC(=O)COc4ccc(Cl)c(F)c4)(CC2)[C@@H](O)C3)cc1 [Compound 474, 2-(4-chloro-3-fluorophenoxy)-N-[(2S)-2-hydroxy-4-{2-[4-(propane-1-sulfonyl)phenoxy]acetamido}bicyclo[2.2.2]octan-1-yl]acetamide]",> 2000 nM
11,"CC(=O)O[C@@H]1CC2(NC(=O)COc3ccc(Cl)c(F)c3)CCC1(NC(=O)COc1ccc(Cl)c(F)c1)CC2 (single isomer, unassigned) [Compound 449]",10 to 50 nM
12,"Cc1cc(OCC(=O)NC23CCC(NC(=O)COc4ccc(Cl)c(F)c4)(CC2)C[C@@H]3O)c2ccccc2n1 [Compound 520, 2-(4-chloro-3-fluorophenoxy)-N-[(3S)-3-hydroxy-4-{2-[(2-methylquinolin-4-yl)oxy]acetamido}bicyclo[2.2.2]octan-1-yl]acetamide]",10 to 50 nM
13,"O=C(COc1ccc(C(F)(F)F)nc1)NC12CCC(NC(=O)COc3ccc(Cl)c(Cl)c3)(C1)C2 [Compound 196, 2-(3,4-dichlorophenoxy)-N-[4-(2-{[6-(trifluoromethyl)pyridin-3-yl]oxy}acetamido)bicyclo[2.1.1]hexan-1-yl]acetamide]",10 to 50 nM
14,"O=C(COc1ccc(S(F)(F)(F)(F)F)nc1)NC12CC(NC(=O)COc3ccc(Cl)c(F)c3)(C1)C2 [Compound 332, 2-(4-chloro-3-fluorophenoxy)-N-[3-(2-{[6-(pentafluoro-X 6-sulfanyl)pyridin-3-yl]oxy}acetamido)bicyclo[1.1.1]pentan-1-yl]acetamide]",10 to 50 nM
15,"O=C(COc1ccc(Cl)c(F)c1)NC12CC(NS(=O)(=O)Cc3ccc(F)cc3)(C1)C2 [Compound 487, 2-(4-chloro-3-fluorophenoxy)-N-(3-{[(4-fluorophenyl)methanesulfonyl]amino}bicyclo[1.1.1]pentan-1-yl)acetamide]",> 2000 nM
16,"O=C(COc1ccc(Cl)c(F)c1)NC12CCC(NC(=O)COc3ccc(C(F)(F)F)nc3)(CC1)[C@@H](O)C2 (single isomer, unassigned) [Compound 302]",< 10 nM

row,Compound,EC50
1,"O=C(COc1cc(C(F)(F)F)nc(C(F)(F)F)c1)NC12CC(NC(=O)COc3ccc(Cl)c(F)c3)(C1)C2 [Compound 296, 2-{[2,6-bis(trifluoromethyl)pyridin-4-yl]oxy}-N-{3-[2-(4-chloro-3-fluorophenoxy)acetamido]bicyclo[1.1.1]pentan-1-yl}acetamide]",> 2000 nM
2,"O=C(COc1ccc(Cl)c(F)c1)NC12CC(NC(=O)COc3cnc(C(F)F)cn3)(C1)C2 [Compound 384, 2-(4-chloro-3-fluorophenoxy)-N-[3-(2-{[5-(difluoromethyl)pyrazin-2-yl]oxy}acetamido)bicyclo[1.1.1]pentan-1-yl]acetamide]",> 2000 nM
3,"CS(=O)(=O)c1ccc(OCC(=O)NC23CCC(NC(=O)COc4ccc(F)c(F)c4)(CC2)[C@@H](O)C3)cc1F [Compound 768, 2-(3,4-difluorophenoxy)-N-[(2S)-4-{2-[3-fluoro-4-(methanesulfonyl)phenoxy]acetamido}-2-hydroxybicyclo[2.2.2]octan-1-yl]acetamide]",50 to 250 nM
4,"CCOc1ncc(OCC(=O)NC23CCC(NC(=O)COc4ccc(Cl)c(F)c4)(CC2)[C@@H](O)C3)cn1 [Compound 624, 2-(4-chloro-3-fluorophenoxy)-N-[(2S)-4-{2-[(2-ethoxypyrimidin-5-yl)oxy]acetamido}-2-hydroxybicyclo[2.2.2]octan-1-yl]acetamide]",< 10 nM
5,"Cc1ccc(OCC(=O)NC23CCC(NC(=O)COc4ccc(Cl)c(F)c4)(CC2)[C@@H](O)C3)cc1F [Compound 737, 2-(4-chloro-3-fluorophenoxy)-N-{(2S)-4-[2-(3-fluoro-4-methylphenoxy)acetamido]-2-hydroxybicyclo[2.2.2]octan-1-yl}acetamide]",< 10 nM
6,"CS(=O)(=O)c1ccc(OCC(=O)NC23CC(NC(=O)COc4ccc(Cl)c(F)c4)(C2)C3)cc1 [Compound 127, 2-(4-chloro-3-fluorophenoxy)-N-(3-{2-[4-(methanesulfonyl)-phenoxy]acetamido}-bicyclo[1.1.1]pentan-1-yl)acetamide]",500 to 2000 nM
7,"O=C(/C=C/c1ccc(Cl)c(Cl)c1)NC12CC(NC(=O)COc3ccc(Cl)c(F)c3)(C1)C2 [Compound 348, (2E)-N-{3-[2-(4-chloro-3-fluorophenoxy)acetamido]bicyclo[1.1.1]pentan-1-yl}-3-(3,4-dichlorophenyl)prop-2-enamide]",10 to 50 nM
8,"COc1cc(OC)nc(OCC(=O)NC23CCC(NC(=O)COc4ccc(Cl)c(F)c4)(CC2)C[C@@H]3O)n1 [Compound 498, 2-(4-chloro-3-fluorophenoxy)-N-[(3S)-4-{2-[(4,6-dimethoxypyrimidin-2-yl)oxy]acetamido}-3-hydroxybicyclo[2.2.2]octan-1-yl]acetamide]",250 to 500 nM
9,"Cc1ccc(OC(=O)NC23CCC(NC(=O)COc4ccc(Cl)c(F)c4)(CC2)CC3O)cc1 (centres unmarked) [Compound 433, 4-methylphenyl {4-[2-(4-chloro-3-fluorophenoxy)acetamido]-2-hydroxybicyclo[2.2.2]octan-1-yl}carbamate]",50 to 250 nM
10,"O=C(COc1ccc(F)c(F)c1)NC12CCC(NC(=O)COc3ccc(Cl)cc3)(CC1)[C@@H](O)C2 [Compound 813, 2-(4-chlorophenoxy)-N-{(2S)-4-[2-(3,4-difluorophenoxy)acetamido]-2-hydroxybicyclo[2.2.2]octan-1-yl}acetamide]",< 10 nM
11,"O=C(COc1ccc(Cl)cc1)NC12CCC(NC(=O)COc3ccc(F)c(F)c3)(CC1)[C@@H](O)C2 [Compound 618, 2-(4-chlorophenoxy)-N-{(3S)-4-[2-(3,4-difluorophenoxy)acetamido]-3-hydroxybicyclo[2.2.2]octan-1-yl}acetamide]",< 10 nM
12,"CC(C)(C)OC(=O)CN(CC(=O)NC12CC(NC(=O)COc3ccc(Cl)c(F)c3)(C1)C2)c1ccc(Cl)cc1 [Compound 685, tert-butyl {[2-({3-[2-(4-chloro-3-fluorophenoxy)acetamido]bicyclo[1.1.1]pentan-1-yl}amino)-2-oxoethyl](4-chlorophenyl)amino}acetate]",> 2000 nM
13,"O=C(COc1ccc(Cl)c(F)c1)NC12CC(N(CCO)CCCOc3ccc(Cl)c(F)c3)(C1)C2 [Compound 692, 2-(4-chloro-3-fluorophenoxy)-N-(3-{[3-(4-chloro-3-fluorophenoxy)propyl](2-hydroxyethyl)amino}bicyclo[1.1.1]pentan-1-yl)acetamide]",250 to 500 nM
14,"O=C(COc1ccc(C2CC2)nc1)NC12CC(NC(=O)COc3ccc4c(c3)OC(F)(F)O4)(C1)C2 [Compound 268, 2-[(6-cyclopropylpyridin-3-yl)oxy]-N-(3-{2-[(2,2-difluoro-2H-1,3-benzodioxol-5-yl)oxy]acetamido}bicyclo[1.1.1]pentan-1-yl)acetamide]",10 to 50 nM
15,"Cc1n[nH]c2cc(OCC(=O)NC34CCC(NC(=O)COc5ccc(Cl)c(F)c5)(CC3)C[C@@H]4O)ccc12 [Compound 749, 2-(4-chloro-3-fluorophenoxy)-N-[(3S)-3-hydroxy-4-{2-[(3-methyl-1H-indazol-6-yl)oxy]acetamido}bicyclo[2.2.2]octan-1-yl]acetamide]",< 10 nM
16,"O=C(COc1ccc(Cl)c(F)c1)NC12CC(NC(=O)Cc3ccncc3)(C1)C2 [Compound 459, 2-(4-chloro-3-fluorophenoxy)-N-{3-[2-(pyridin-4-yl)acetamido]bicyclo[1.1.1]pentan-1-yl}acetamide]",> 2000 nM
